Measurements from ChEMBL document CHEMBL3792299, “Novel tricyclics (e.g., GSK945237) as potent inhibitors of bacterial type IIA topoisomerases” (Bioorg Med Chem Lett, 2016).
In brackets after ≈: the same amount, converted by molar mass. Activity calls are given as the source filed them. The rule behind the calls is not given here.

How the values were obtained:
Cynomolgus monkey [1] = assay: Blood clearance in cynomolgus monkey at 3 mg/kg, iv administered as single dose by LC/MS/MS analysis relative to hepatic blood flow; format: ADME, organism-based, Macaca fascicularis, Liver; details: in vivo
Liver microsome [2] = assay: Intrinsic clearance in Beagle dog liver microsomes assessed per gram of liver at 0.5 uM by LC/MS/MS analysis; format: ADME, Canis lupus familiaris
[3] = Volume of distribution at steady state in cynomolgus monkey at 3 mg/kg, iv administered as single dose by LC/MS/MS analysis; format: ADME, organism-based, Macaca fascicularis; details: in vivo, read-out: Vdss
[4] = Plasma protein binding in Sprague-Dawley rat at 0.5 to 5 ug/ml by equilibrium dialysis method; format: ADME, cell-free; details: read-out: PPB (converted)
Canis familiaris [5] = assay: Renal clearance in Beagle dog at 3 mg/kg, iv administered as single dose by LC/MS/MS analysis relative to total clearance; format: ADME, organism-based, Canis lupus familiaris, Kidney; details: in vivo
[6] = Terminal half life in Sprague-Dawley rat at 3 mg/kg, iv administered as single dose by LC/MS/MS analysis; format: ADME, organism-based; details: in vivo, read-out: beta t1/2 (converted)
Rattus norvegicus [7] = assay: Blood clearance in Sprague-Dawley rat at 3 mg/kg, iv administered as single dose by LC/MS/MS analysis relative to hepatic blood flow; format: ADME, organism-based, Liver; details: in vivo
Liver microsome [8] = assay: Intrinsic clearance in Sprague-Dawley rat liver microsomes assessed per gram of liver at 0.5 uM by LC/MS/MS analysis; format: ADME
[9] = Volume of distribution at steady state in Sprague-Dawley rat at 3 mg/kg, iv administered as single dose by LC/MS/MS analysis; format: ADME, organism-based; details: in vivo, read-out: Vdss
Rattus norvegicus [10] = assay: AUC in Sprague-Dawley rat at 100 mg/kg, po bid by LC/MS/MS analysis; format: ADME, organism-based; details: in vivo
[11] = Cmax in Sprague-Dawley rat at 100 mg/kg, po bid by LC/MS/MS analysis; format: ADME, organism-based; parameters: dose 100 mg/kg, route oral; details: in vivo
Cynomolgus monkey [12] = assay: Renal clearance in cynomolgus monkey at 3 mg/kg, iv administered as single dose by LC/MS/MS analysis relative to total clearance; format: ADME, organism-based, Macaca fascicularis, Kidney; details: in vivo
[13] = Cmax in cynomolgus monkey at 5 mg/kg, po administered as single dose by LC/MS/MS analysis; format: ADME, organism-based, Macaca fascicularis; parameters: dose 5 mg/kg, route oral; details: in vivo
[14] = Plasma protein binding in cynomolgus monkey at 0.5 to 5 ug/ml by equilibrium dialysis method; format: ADME, cell-free, Macaca fascicularis; details: read-out: PPB (converted)
Rattus norvegicus [15] = assay: AUC in Sprague-Dawley rat at 5 mg/kg, po administered as single dose by LC/MS/MS analysis; format: ADME, organism-based; details: in vivo
Streptococcus pneumoniae [16] = assay: Antibacterial activity against quinolone-resistant Streptococcus pneumoniae TPS3 after 18 to 24 hrs by broth microdilution method; format: functional
[17] = Intrinsic clearance in cynomolgus monkey liver microsomes assessed per gram of liver at 0.5 uM by LC/MS/MS analysis; format: ADME, Macaca fascicularis
Haemophilus influenzae = assay: Antibacterial activity against Haemophilus influenzae H128 after 18 to 24 hrs by broth microdilution method; format: functional
[18] = biological target: Voltage-gated inwardly rectifying potassium channel KCNH2 (Homo sapiens, UniProt Q12809); assay: Inhibition of human ERG
Sequence of Voltage-gated inwardly rectifying potassium channel KCNH2 (Q12809 whole entry): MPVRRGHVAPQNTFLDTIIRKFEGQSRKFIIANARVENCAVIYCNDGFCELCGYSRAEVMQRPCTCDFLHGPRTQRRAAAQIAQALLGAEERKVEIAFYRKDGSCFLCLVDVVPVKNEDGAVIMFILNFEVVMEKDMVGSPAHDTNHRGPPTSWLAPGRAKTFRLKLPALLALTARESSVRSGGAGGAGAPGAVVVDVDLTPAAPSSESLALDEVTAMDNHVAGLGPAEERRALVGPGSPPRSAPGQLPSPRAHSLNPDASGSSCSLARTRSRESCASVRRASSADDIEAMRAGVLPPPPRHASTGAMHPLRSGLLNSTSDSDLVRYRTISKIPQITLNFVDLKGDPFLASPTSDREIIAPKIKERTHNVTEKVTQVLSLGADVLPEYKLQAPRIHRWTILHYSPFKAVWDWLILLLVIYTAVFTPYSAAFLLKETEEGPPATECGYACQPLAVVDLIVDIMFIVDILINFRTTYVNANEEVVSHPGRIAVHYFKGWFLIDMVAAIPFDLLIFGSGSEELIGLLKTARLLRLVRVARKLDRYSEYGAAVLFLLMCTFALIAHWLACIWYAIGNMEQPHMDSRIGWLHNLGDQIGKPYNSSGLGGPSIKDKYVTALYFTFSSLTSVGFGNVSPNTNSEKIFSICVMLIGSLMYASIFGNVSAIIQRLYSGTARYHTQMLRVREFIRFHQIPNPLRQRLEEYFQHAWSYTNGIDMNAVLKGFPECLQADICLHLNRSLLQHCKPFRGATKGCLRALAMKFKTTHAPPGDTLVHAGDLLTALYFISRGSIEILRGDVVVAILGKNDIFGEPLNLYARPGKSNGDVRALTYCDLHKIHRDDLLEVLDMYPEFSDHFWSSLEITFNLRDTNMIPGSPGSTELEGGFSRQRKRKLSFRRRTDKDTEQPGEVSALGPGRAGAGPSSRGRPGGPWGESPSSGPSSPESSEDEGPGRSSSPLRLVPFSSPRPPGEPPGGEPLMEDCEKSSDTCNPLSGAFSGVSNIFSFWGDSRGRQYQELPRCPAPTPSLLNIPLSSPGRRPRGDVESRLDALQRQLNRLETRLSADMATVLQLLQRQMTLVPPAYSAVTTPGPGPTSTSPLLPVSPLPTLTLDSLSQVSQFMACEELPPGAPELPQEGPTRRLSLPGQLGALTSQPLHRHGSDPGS

Cynomolgus monkey [19] = assay: AUC in cynomolgus monkey at 5 mg/kg, po administered as single dose by LC/MS/MS analysis; format: ADME, organism-based, Macaca fascicularis; details: in vivo
Canis familiaris [20] = assay: AUC in Beagle dog at 5 mg/kg, po administered as single dose by LC/MS/MS analysis; format: ADME, organism-based, Canis lupus familiaris; details: in vivo
Staphylococcus aureus = assay: Antibacterial activity against Staphylococcus aureus WCUH 29 after 18 to 24 hrs by broth microdilution method; format: functional
[21] = Cmax in Beagle dog at 5 mg/kg, po administered as single dose by LC/MS/MS analysis; format: ADME, organism-based, Canis lupus familiaris; parameters: dose 5 mg/kg, route oral; details: in vivo
[22] = Inhibition of Haemophilus influenzae DNA gyrase-dependent DNA replication by scintillation proximity assay
[23] = Plasma protein binding in Beagle dog at 0.5 to 5 ug/ml by equilibrium dialysis method; format: ADME, cell-free, Canis lupus familiaris; details: read-out: PPB (converted)
Canis familiaris [24] = assay: Blood clearance in Beagle dog at 3 mg/kg, iv administered as single dose by LC/MS/MS analysis relative to hepatic blood flow; format: ADME, organism-based, Canis lupus familiaris, Liver; details: in vivo
[25] = Cmax in Sprague-Dawley rat at 5 mg/kg, po administered as single dose by LC/MS/MS analysis; format: ADME, organism-based; parameters: dose 5 mg/kg, route oral; details: in vivo
[26] = Terminal half life in cynomolgus monkey at 3 mg/kg, iv administered as single dose by LC/MS/MS analysis; format: ADME, organism-based, Macaca fascicularis; details: in vivo, read-out: beta t1/2 (converted)
Streptococcus pneumoniae [27] = assay: Antibacterial activity against quinolone-resistant Streptococcus pneumoniae TPS3 in rat respiratory tract infection model assessed as decrease in bacterial burden in lung at 100 mg/kg, po bid administered through gavage at 1, 7, 24,31 hrs post infection measured after 48 hrs; format: functional, organism-based
[28] = Terminal half life in Beagle dog at 3 mg/kg, iv administered as single dose by LC/MS/MS analysis; format: ADME, organism-based, Canis lupus familiaris; details: in vivo, read-out: beta t1/2 (converted)
Rattus norvegicus [29] = assay: Oral bioavailability in Sprague-Dawley rat at 5 mg/kg administered as single dose by LC/MS/MS analysis; format: ADME, organism-based; details: in vivo
Cynomolgus monkey [30] = assay: Oral bioavailability in cynomolgus monkey at 5 mg/kg administered as single dose by LC/MS/MS analysis; format: ADME, organism-based, Macaca fascicularis; details: in vivo
[31] = Volume of distribution at steady state in Beagle dog at 3 mg/kg, iv administered as single dose by LC/MS/MS analysis; format: ADME, organism-based, Canis lupus familiaris; details: in vivo, read-out: Vdss
Streptococcus pneumoniae [32] = assay: Antibacterial activity against quinolone-resistant Streptococcus pneumoniae TPS3 in rat respiratory tract infection model assessed as decrease in bacterial burden in lung at 50 mg/kg po bid administered through gavage at 1, 7, 24,31 hrs post infection measured after 48 hrs; format: functional, organism-based
Canis familiaris [33] = assay: Oral bioavailability in Beagle dog at 5 mg/kg administered as single dose by LC/MS/MS analysis; format: ADME, organism-based, Canis lupus familiaris; details: in vivo

Q: What does the source list for `O=c1ccc2ccc(F)c3c2n1C[C@H]3CN1CCC(NCc2cc3c(nn2)OCCO3)CC1` [GSK-945237]?
A: CL (Cynomolgus monkey [1]): 40%; CLint (Liver microsome [2]): < 0.6 mL/min/g; Vd [3]: 8.2 L/kg; fraction unbound [4]: 0.367; CL (Canis familiaris [5]): 74%; half-life [6]: 1.9 h; CL (Rattus norvegicus [7]): 100%; CLint (Liver microsome [8]): 0.7 mL/min/g; Vd [9]: 7.2 L/kg; AUC (Rattus norvegicus [10]): 30 ug.hr/ml/day; Cmax [11]: 3000 ng/mL; CL (Cynomolgus monkey [12]): 45%; Cmax [13]: 210 ng/mL; fraction unbound [14]: 0.576; AUC (Rattus norvegicus [15]): 290 ng·h/mL; MIC (Streptococcus pneumoniae [16]): 0.25 µg/mL (≈ 0.554 µM); CLint [17]: 1.5 mL/min/g; MIC (Haemophilus influenzae): 1 µg/mL (≈ 2.21 µM); IC50 [18]: 238 µM; AUC (Cynomolgus monkey [19]): 1190 ng·h/mL; AUC (Canis familiaris [20]): 6050 ng·h/mL; MIC (Staphylococcus aureus): 0.06 µg/mL (≈ 0.133 µM); Cmax [21]: 1070 ng/mL; IC50 [22]: 0.034 µg/mL (≈ 0.0753 µM); fraction unbound [23]: 0.53; CL (Canis familiaris [24]): 40%; Cmax [25]: 40 ng/mL; half-life [26]: 7.6 h; Activity (Streptococcus pneumoniae [27]): Active; half-life [28]: 8.8 h; F (Rattus norvegicus [29]): 22%; F (Cynomolgus monkey [30]): 34%; Vd [31]: 6.1 L/kg; Activity (Streptococcus pneumoniae [32]): Active; F (Canis familiaris [33]): 100%

Q: With `O=C1CC(NCc2cc3c(nn2)OCCO3)CCN1C[C@@H]1Cn2c(=O)ccc3ccc(F)c1c32` (stereo partly specified) as the compound, how does the MIC (Streptococcus pneumoniae [16]) read?
A: 16 µg/mL (≈ 34.4 µM)

Q: And the MIC (Haemophilus influenzae)?
A: > 16 µg/mL

Q: And the MIC (Staphylococcus aureus)?
A: 16 µg/mL (≈ 34.4 µM)

Q: And the IC50 [22]?
A: 0.166 µg/mL (≈ 0.357 µM)

Q: For `COc1ccc2ccc(=O)n3c2c1[C@H](CN1CCC(NCc2cc4c(nn2)OCCO4)CC1)C3`, which MIC (Streptococcus pneumoniae [16]) is on record?
A: 8 µg/mL (≈ 17.3 µM)

Q: What about the MIC (Haemophilus influenzae) of the same compound?
A: 16 µg/mL (≈ 34.5 µM)

Q: What about the MIC (Staphylococcus aureus) of the same compound?
A: 2 µg/mL (≈ 4.31 µM)

Q: And the IC50 [22]?
A: 0.276 µg/mL (≈ 0.595 µM)

Q: For `Cc1cc(F)c2c3c1ccc(=O)n3C[C@H]2CN1CCC(NCc2cc3c(nn2)OCCO3)CC1`, which MIC (Streptococcus pneumoniae [16]) is on record?
A: 0.5 µg/mL (≈ 1.07 µM)

Q: And the MIC (Haemophilus influenzae)?
A: 2 µg/mL (≈ 4.3 µM)

Q: And the MIC (Staphylococcus aureus)?
A: 0.06 µg/mL (≈ 0.129 µM)

Q: And the IC50 [22]?
A: 0.099 µg/mL (≈ 0.213 µM)

Q: Which MIC (Streptococcus pneumoniae [16]) does the source give for `O=c1ccc2ccc(F)c3c2n1C[C@H]3CN1CCCC(CNCc2cc3c(nn2)OCCO3)C1` (stereo partly specified) here?
A: 4 µg/mL (≈ 8.59 µM)

Q: And the MIC (Haemophilus influenzae)?
A: > 16 µg/mL

Q: And the MIC (Staphylococcus aureus)?
A: 1 µg/mL (≈ 2.15 µM)

Q: And the IC50 [22]?
A: 0.666 µg/mL (≈ 1.43 µM)

Q: Which results are given for `O=c1cnc2ccc(F)c3c2n1C[C@H]3CN1CCC(NCc2cc3c(nn2)OCCO3)CC1`?
A: MIC (Haemophilus influenzae): 0.5 µg/mL (≈ 1.1 µM); MIC (Staphylococcus aureus): 0.06 µg/mL (≈ 0.133 µM); IC50 [22]: 0.036 µg/mL (≈ 0.0796 µM)

Q: Which results are given for `N#Cc1ccc2ccc(=O)n3c2c1[C@H](CN1CCC(NCc2cc4c(nn2)OCCO4)CC1)C3`?
A: MIC (Streptococcus pneumoniae [16]): 0.5 µg/mL (≈ 1.09 µM); MIC (Haemophilus influenzae): 2 µg/mL (≈ 4.36 µM); MIC (Staphylococcus aureus): 0.25 µg/mL (≈ 0.545 µM); IC50 [22]: 0.062 µg/mL (≈ 0.135 µM)

Q: For `O=c1ccc2ccc(F)c3c2n1C[C@@H]3CN1CCC(NCc2cc3c(nn2)OCCO3)CC1`, which MIC (Streptococcus pneumoniae [16]) is on record?
A: 8 µg/mL (≈ 17.7 µM)

Q: What about the MIC (Haemophilus influenzae) of the same compound?
A: > 16 µg/mL

Q: What about the MIC (Staphylococcus aureus) of the same compound?
A: 2 µg/mL (≈ 4.43 µM)

Q: What about the IC50 [22] of the same compound?
A: 0.121 µg/mL (≈ 0.268 µM)

Q: What does the source list for `COc1c(N2C[C@@H]3CCCN[C@@H]3C2)c(F)cc2c(=O)c(C(=O)O)cn(C3CC3)c12` [MOXIFLOXACIN]?
A: MIC (Streptococcus pneumoniae [16]): 4 µg/mL (≈ 9.96 µM); Activity (Streptococcus pneumoniae [27]): inactive

Q: For `O=c1ccc2cccc3c2n1C[C@H]3CN1CCC(NCc2cc3c(nn2)OCCO3)CC1`, which MIC (Streptococcus pneumoniae [16]) is on record?
A: 1 µg/mL (≈ 2.31 µM)

Q: What about the MIC (Haemophilus influenzae) of the same compound?
A: 2 µg/mL (≈ 4.61 µM)

Q: What about the MIC (Staphylococcus aureus) of the same compound?
A: 0.5 µg/mL (≈ 1.15 µM)

Q: Which MIC (Streptococcus pneumoniae [16]) does the source give for `Cc1ccc2ccc(=O)n3c2c1[C@H](CN1CCC(NCc2cc4c(nn2)OCCO4)CC1)C3` here?
A: 1 µg/mL (≈ 2.23 µM)

Q: What about the MIC (Haemophilus influenzae) of the same compound?
A: 4 µg/mL (≈ 8.94 µM)

Q: What about the MIC (Staphylococcus aureus) of the same compound?
A: 0.25 µg/mL (≈ 0.559 µM)

Q: What about the IC50 [22] of the same compound?
A: 0.076 µg/mL (≈ 0.17 µM)
